Here are results for 17 compounds from US10519504B2, “Methods for treatment of oncological disorders using epimetabolic shifters, multidimensional intracellular molecules, or environmental influencers” (Berg LLC, priority 2009, dated 2019).

In one data set the test system is cancer cells. Conditions: cited from earlier work.
Another data set relates to Bcl-2. Description: Western blot of building block components, Bcl-2. The format is cell-based. Conditions: for Bcl-2 (summary): oncogenic cells. The protocol:
(§1) Skmel-28 melanoma cells were cultured in DMEM/F12 supplemented with 5% Fetal Bovine Serum (FBS) and 1× final concentration of Antibiotics. The cells were grown to 85% confluency and treated with building block components for 3, 6, 12 and 24 hours. The cells were then pelleted and a Western blot analysis was performed. The test building block components included L-Phenylylalanine, DL-Phenylylalanine, D-Phenylylalanine, L-Tyrosine, DL-Tyrosine, D-Tyrosine, 4-Hydroxy-phenylpyruvate, phenylacetate, 3-methoxy-4-hydroxymandelate (vanillylmandelate or VMA), vanillic acid, 4-hydroxy-benzoate, pyridoxine, panthenol, mevalonic acid, Acetylglycine, Acetyl-CoA, Farnesyl, and 2,3-Dimethoxy-5-methyl-p-benzoquinone.
(§2) In the Western Blot Analysis, the cells were pelleted in cold PBS, lysed, and the protein levels were quantified using a BCA protein assay. The whole cell lysate was loaded in a 4% loading 12% running Tris-HCl gel. The proteins were then transferred to a nitrocellulose paper then blocked with a 5% milk Tris-buffered solution for 1 hour. The proteins were then exposed to primary antibodies (Bcl-2 and Caspase-3) overnight. The nitrocellulose paper was then exposed to Pico Chemilluminescent for 5 min and the protein expression was recorded. After exposure, actin was quantified using the same method. Using ImageJ the levels of protein expression were quantified. A t-Test was used to analyze for statistical significance.
Background: In western blotting, separated proteins are transferred to a membrane and probed.

The next data set has as its system Caspase-3. Put plainly: Western blot of building block components, Caspase-3. The format is cell-based. Conditions: for Caspase-3 expression: Skmel-28; for Caspase-3 expression (summary): oncogenic cells. As to the method:
as §1, §2

The subject of another data set is Melanoma cells. Description: Cell proliferation assay (cell count) of building block combinations. The format is cell-based. The protocol:
This set of experiments used a cell proliferation assay to assess the effect of combining different building block molecules on cell proliferation.
The first study examined the effect of combining 4-Hydroxy-Benzoate with Benzoquinone. Cells were incubated for 48 hours, after which a cell count was performed for the live cells. Each test group was compared to the control, and each combination groups were compared to Benzoquinone control. The compounds were statistically analyzed for the addition of Benzoquinone.
Additional studies were performed testing additional molar ratios. For the first test 4-Hydroxybenzoic were tested at concentrations of 500 nM, 1 μM, and 50 μM. These concentrations were tested in combination with 2,3-Dimethoxy-5-methyl-p-benzoquinone (Benzo). The concentration of Benzo tested were 25 μM, 50 μM, and 100 μM. Melanoma cells were grown to 80% confluency and seeded in 6 well plates at a concentration of 40K cells per well. The cells were treated with CoQ10, 4-Hydroxybenzoate, Benzo, and a combination of 4-Hydroxybenzoate/Benzo.
A T-test was performed with p<0.05 as statistically significant.

In data set [1] the test system is neonatal fibroblast cells. Description: Cell proliferation assay (coulter counter). Format: cell-based. Conditions: HB 500 nM, 5 μM, 25 μM, alone and with benzoquinone 25, 50, 100 μM; 24 hours.
Experimental: A cell proliferation assay was also performed on neonatal fibroblast cells. The concentrations of HB tested were 500 nM, 5 μM, and 25 μM. HB was also tested in combination with benzoquinone at a concentrations of 25 μM, 50 μM, and 100 μM. Melanoma cells were seeded at 40 k cells per well and were treated for 24 hours. The cells were trypsinized and quantified using a coulter counter.
For data set [2], the system named is induced pancreatic cancer. Conditions: Group H: 5 mg/kg.
[3] abbreviates: Skmel-28, 24 hours, concentration not given.
Setting [4] is: Skmel-28, all time points and concentrations tested (500 nM, 1 μM, 25 μM, 50 μM).
[5] abbreviates: all time points and concentrations tested (500 nM, 1 μM, 25 μM, 50 μM).

In the case of `C=C1/C(=C\C=C2/CCC[C@]3(C)[C@@H]([C@H](C)CCCC(C)(C)O)CC[C@@H]23)C[C@@H](O)C[C@@H]1O` [Vitamin D3, 1α, 25-dihydroxyvitamin D3], in the data set with cancer cells (Deeb et al. 2007), the “expression of BCL2 and BCL-XL” value is “repressing the expression of the anti-apoptotic, pro-survival proteins BCL2 and BCL-XL”; the “expression of pro-apoptotic proteins (BAX, BAK, BAD)” value was “inducing the expression of pro-apoptotic proteins”; the p21WAFI/CIPI gene transcription entry is reported as “induce gene transcription of the cyclin-dependent kinase inhibitor p21WAFI/CIPI”. In the data set with cancer cells (Masuda and Jones, 2006), the “expression of VEGF” value was “inhibit the expression of vascular endothelial growth factor (VEGF)” and the “proliferation of tumor-derived endothelial cells” value is recorded as “inhibit the proliferation of some tumor-derived endothelial cells”.

Turning to `N[C@H](Cc1ccc(O)cc1)C(=O)O` [D-Tyrosine], the Bcl-2 expression result with Bcl-2 (Skmel-28, 5 μM and 15 μM, 12 and 24 hours) was “reduction in Bcl-2 expression”. The Caspase-3 expression entry with Caspase-3 (1 μM, 12 and 24 hour) was “increase in Caspase-3 expression”; with Caspase-3 (5 μM, 3, 12 and 24 time periods) it was “significantly increased”; with Caspase-3 (5 μM, 12 hour), “increase in Caspase-3 expression”.

Take `Cc1ncc(CO)c(CO)c1O` [Pyridoxine, pyridoxine]: the Bcl-2 expression result with Bcl-2 (setting [3]) is “significant reduction in Bcl-2”.

For `O=C(O)c1ccc(O)cc1` [4-Hydroxybenzoate, 4-hydroxy-benzoate], the Bcl-2 expression entry in the data set on Bcl-2 (Skmel-28, 15 μM, 24 hours) was “significant reduction in Bcl-2 expression”. Also, the “cell number vs control” value in the data set with Melanoma cells (48 hours) is given as “significant decrease in cell number”. For the same compound, in the data set with Melanoma cells (HB 500 nM, 1 μM, 50 μM), the cell proliferation result is given as “significant decrease in cell proliferation”. In addition, the fibroblast cell number result in data set [1] was “did not show a significant reduction in fibroblast cells”.

Turning to `COc1cc(C(=O)O)ccc1O` [Vanillic Acid, vanillic acid], the Bcl-2 expression result was “significantly reduce Bcl-2 expression” in the data set with Bcl-2 (Skmel-28, 500 nM and 5 μM, 24 hour); “reduction in Bcl-2 expression” with Bcl-2 (Skmel-28, 15 μM, 3 hours). In the data set on Caspase-3 (15 μM, 24 hours), the Caspase-3 expression result was “significant increase in Caspase-3 expression”.

Regarding `N[C@@H](Cc1ccc(O)cc1)C(=O)O` [L-Tyrosine], the Bcl-2 expression result is listed as “statistically significant decrease in Bcl-2” in the data set on Bcl-2 (Skmel-28, 5 μM, 24 hours); “statistically significant decrease in Bcl-2” in the data set with Bcl-2 (Skmel-28, 500 μM and 5 μM, 24 hours). The “Bcl-2 (summary)” value in the data set on Bcl-2 is given as “significant reduction in Bcl-2”. In the data set with Caspase-3 (500 nM, 12 hours), the Caspase-3 expression result is reported as “statistically significant increase in Caspase-3”. The “Caspase-3 expression (summary)” value with Caspase-3 is “increase in Caspase-3 expression”.

In the case of `CC(=O)SCCNC(=O)CCNC(=O)[C@H](O)C(C)(C)COP(=O)(O)OP(=O)(O)OC[C@H]1O[C@@H](n2cnc3c(N)ncnc32)[C@H](O)[C@@H]1OP(=O)(O)O` [Acetyl-CoA], in the data set on Bcl-2 (setting [4]), the Bcl-2 expression result was “no significant observed reduction in Bcl-2”. Besides, the Caspase-3 expression result in the data set with Caspase-3 (setting [5]) is given as “no significant observed reduction in Bcl-2 or increase in Caspase-3 expression”.

On to `N[C@@H](Cc1ccccc1)C(=O)O` [L-Phenylalanine], for which the Bcl-2 expression result in the data set with Bcl-2 (Skmel-28, 5 μM, 6 hours) is “statistically significant decrease in Bcl-2”; with Bcl-2 (Skmel-28, 25 μM, 12 hours), “statistically significant decrease in Bcl-2”; in the data set with Bcl-2 (Skmel-28, 100 μM, 3 hours and 12 hours) it was “statistically significant decrease in Bcl-2”. Moreover, the “Bcl-2 expression compared to the control” value with Bcl-2 (Skmel-28, remaining time points, not statistically significant) is given as “constant trend for the decrease in Bcl-2”. For the same compound, the “Bcl-2 (summary)” value in the data set on Bcl-2 is reported as “significant reduction in Bcl-2”. Further, the Caspase-3 expression result with Caspase-3 (25 μM, 12 hours) is recorded as “statistically significant increase in Caspase-3”. Moreover, the “Caspase-3 expression (summary)” value with Caspase-3 was “increase in Caspase-3 expression”.

With `COc1cc(C(O)C(=O)O)ccc1O` (stereo not drawn) [VMA, 3-methoxy-4-hydroxymandelate], in the data set with Bcl-2 (Skmel-28, 100 nM to 100 μM), the “Bcl-2 expression, trend” value is “downward trend of Bcl-2 expression” and the “apoptotic effect (Bcl-2, Caspase-3)” value is listed as “no statistically significant apoptotic effect”.

Take `CC(C)(CO)[C@@H](O)C(=O)NCCCO` [Panthenol, panthenol]: the Bcl-2 expression entry in the data set on Bcl-2 (melanoma cells, 25 μM) is recorded as “significant reduction in Bcl-2 expression”.

For `N[C@H](Cc1ccccc1)C(=O)O` [D-Phenylalanine], the Bcl-2 expression result in the data set on Bcl-2 (Skmel-28, 5 μM and 25 μM, 3 hours) is on record as “significant reduction”; in the data set on Bcl-2 (Skmel-28, 5 μM, 25 μM and 100 μM, 6 hours), “significant reduction in Bcl-2 expression”. The Caspase-3 expression entry with Caspase-3 (5 μM and 100 μM, 6 hours) is “significant increase in Caspase-3 expression”.

Take `CC(=O)NCC(=O)O` [Acetylglycine]: the Bcl-2 expression result was “significant decrease in Bcl-2 expression” in the data set with Bcl-2 (Skmel-28, 5 μM and 25 μM, 12 hours); “significant decrease in Bcl-2” in the data set with Bcl-2 (Skmel-28, 100 μM, 24 hour).

Take `NC(Cc1ccc(O)cc1)C(=O)O` (racemic) [DL-Tyrosine]: the Bcl-2 expression entry in the data set with Bcl-2 (Skmel-28, 1 μM and 15 μM, 12 hours) is recorded as “statistical decrease in Bcl-2 expression”; in the data set with Bcl-2 (Skmel-28, 5 μM, 24 hours) it was “statistical decrease in Bcl-2 expression”. Besides, in the data set with Caspase-3 (5 μM and 15 μM, 12 hours), the Caspase-3 expression result was “increase in Caspase-3 expression”.

Regarding `COc1cccc2c1C(=O)c1c(O)c3c(c(O)c1C2=O)C[C@@](O)(C(=O)CO)C[C@@H]3O[C@H]1C[C@H](N)[C@H](O)[C@H](C)O1` [Doxorubicin, reference compound], in data set [2], the “survival after 28 days” value is “a significant number of the animals in Group H had died due to the toxicity of Doxorubicin”.

Take `C[C@@](O)(CCO)CC(=O)O` [Mevalonic Acid, mevalonic acid]: the Bcl-2 expression entry in the data set with Bcl-2 (setting [4]) is listed as “no significant reduction in Bcl-2 expression”. Also, in the data set with Caspase-3 (setting [5]), the Caspase-3 expression result is “no significant reduction in Bcl-2 expression or an increase in Caspase-3 expression”.

For the compound `O=C(O)C(=O)Cc1ccc(O)cc1` [4-Hydroxy-phenylpyruvate], the Bcl-2 expression entry in the data set on Bcl-2 (Skmel-28, 5 μM and 15 μM, 24 hours) is “significant reduction in Bcl-2 expression”. Moreover, the “Bcl-2 (summary)” value in the data set on Bcl-2 was “significant reduction in Bcl-2”. In addition, in the data set with Caspase-3 (5 μM and 15 μM, 12 hours), the Caspase-3 expression result was “significant increase in Caspase-3 expression”. The “Caspase-3 expression (summary)” value with Caspase-3 is “increase in Caspase-3 expression”.

`NC(Cc1ccccc1)C(=O)O` (racemic) [DL-Phenylalanine]: the Bcl-2 expression result in the data set on Bcl-2 (setting [3]) is listed as “statistically significant decrease in Bcl-2”. Also, in the data set with Caspase-3 (3 hours, concentration not given), the Caspase-3 expression result was “statistically significant increase in Caspase-3”.
